US7198949B2, “Compositions and methods for altering the biodistribution of biological agents” (Board of Regents of the University of Nebraska, priority 1996, dated 2007)
Marks after values point to notes of the source that are not given here.

What was measured:
[1] = biological target: albumin (Homo sapiens, UniProt P02768); settings: drugs which bind to albumin at site 1; cited from earlier work
[2] = biological target: T1, albumin of PESDA microbubbles (Homo sapiens, UniProt P02768); assay: Partitioning of 35S-labeled PS-ODN between PESDA microbubble top layer and lower layer, liquid scintillation counting; type: binding; settings: for BOTTOM / TOP: N 6; for TOP: top layer containing microbubbles
T1 construct: commercially available albumin (human), U.S.P. solution (generally supplied as 5% or 25% by weight sterile aqueous solutions); purchased
Method: Radiolabeled oligonucleotides were synthesized as hydrogen phosphonate material by Glen Research (Bethesda, Md.) The uniformly ^35S-labeled PS-ODN with sequences 5′-TATGCTGTGCCGGGGTCTTCGGGC 3′ (24-mer complementary to c-myb) (SEQ ID NO:2) and 5′ TTAGGG 3′ (SEQ ID NO:3) were incubated in a final volume of 0.5 ml with the perfluorocarbon-exposed sonicated dextrose albumin microbubble solution for 30 minutes at 37° C. The solutions were allowed to stand so that the bubbles could rise to the top and 100 microliters were removed from the clear solution at the bottom and 100 microliters were removed from the top containing the microbubbles.
Five percent human serum albumin and five percent dextrose were obtained from a commercial source. Three parts of 5% dexticse and one part 5% human serum albumin (total 16 milliliters) were drawn into a 35-milliliter Monojet syringe. Each dextrose albumin sample was hand agitated with 8±2 milliliters of either a fluorocarbon gas (decafluorobutane; molecular weight 238 grams/mole) or 8±2 milliliters of room air, and the sample was then exposed to electromechanical sonication at 20 kilohertz for 80±5 seconds. The mean size of four consecutive samples of the perfluorocarbon-exposed sonicated dextrose albumin (PESDA) microbubbles produced in this manner, as measured with hemocytometry was 4.6±0.4 microns, and mean concentration, as measured by a Coulter counter was 1.4×10^9 bubbles/milliliter. The solution of microbubbles was then washed in a 1000 times volume excess of 5% dextrose to remove albumin which was not associated with the microbubbles. The microbubbles were allowed four hours to rise. The lower solution was then removed leaving the washed foam. The washed foam was then mixed with 0.9% sodium chloride.
Radioactivity in solutions were determined by liquid scintillation counting in a liquid scintillation counter (model LSC7500; Beckman Instruments GmbH, Munich, Germany). The sample volume was 100 μl to which 5 ml of Hydrocount biodegradable scintillation cocktail was added and mixed. Samples were counted immediately after each experiment and then again 24 hours later in order to reduce the influence of chemiluminescence and of quenching.

[3] = biological target: human serum albumin (Homo sapiens, UniProt P02768); settings: cited from earlier work
[4] = tested on: cytochrome P450 IIB1; assay: Hexobarbital sleep time and biodistribution in rats given antisense oligos to cytochrome P450 IIB1 with or without PESDA microbubbles; type: in vivo, rat; settings: PB alone × 2 days, 100 mg/kg HB i.p., control rats about 23 minutes
Method: The oligonucleotides were conjugated to perfluoropropane exposed sonicated dextrose albumin microbubbles (PESDA) as earlier described and delivered to rats intravenously.
Male Sprague-Dawley rats (Sasco, Omaha), were used and weighed between 210 to 290 grams for all studies. […] The animals were exposed to 12 hour light/dark cycle and allowed access to Purina rat chow and tap water ad libitum.
Rats in groups with PB were injected intraperitoneally with phenobarbital (Mallinckrodt, St. Louis) at 80 ml/kg/day×2 days. The PB injections were given simultaneously with the ODN-microbubble injections. Phosphorothioate ODN injections were 1 ml/kg/day×2 days. Sleep times were measured 48 hours after the first injection. The rats were injected intraperitoneally with 100 ml/kg hexobarbital (Sigma, St. Louis), paired fresh daily. The volume of this injection is 1 ml/kg body weight.
Each rat was injected with 100 mg/kg of hexobarbital intraperitoneally. The animals were placed on their backs to insure that they were still under sedation from the hexobarbital. Sleep time is defined as the time they are placed on their backs to the time when they roll over. The sleep times listed are the mean of each animal in the group±standard deviation.
As described earlier, 100 mg/kg HB was injected i.p. to each animal at the end of 2 days of treatment with PB and/or the ODNs.

[5] = bubbles in the presence of free albumin
[6] = bubbles in the presence of free albumin, lower clear layer
[7] = washed bubbles (no free albumin)
[8] = washed bubbles (no free albumin), lower layer

T1 sequence (P02768 25-609): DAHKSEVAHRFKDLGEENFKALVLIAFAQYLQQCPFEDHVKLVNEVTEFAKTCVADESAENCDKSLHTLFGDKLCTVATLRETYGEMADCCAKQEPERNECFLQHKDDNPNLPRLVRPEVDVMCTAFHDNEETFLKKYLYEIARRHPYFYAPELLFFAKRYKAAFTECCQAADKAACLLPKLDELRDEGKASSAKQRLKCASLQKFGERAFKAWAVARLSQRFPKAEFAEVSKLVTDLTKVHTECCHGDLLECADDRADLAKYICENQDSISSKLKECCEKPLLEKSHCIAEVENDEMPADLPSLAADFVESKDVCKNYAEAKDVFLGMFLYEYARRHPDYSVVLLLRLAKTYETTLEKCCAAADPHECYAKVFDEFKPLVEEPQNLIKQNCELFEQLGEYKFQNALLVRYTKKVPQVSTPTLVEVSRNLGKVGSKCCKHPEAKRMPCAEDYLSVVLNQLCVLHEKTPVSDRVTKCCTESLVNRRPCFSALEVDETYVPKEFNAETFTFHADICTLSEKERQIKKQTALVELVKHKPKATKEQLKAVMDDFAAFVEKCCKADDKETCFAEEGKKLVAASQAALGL
Sequence of albumin (P02768 25-609): as above
Sequence of human serum albumin (P02768 25-609): as above

Compound: CN1C(C(=O)Nc2ccccn2)=C(O)c2ccccc2S1(=O)=O [Piroxicam]
- % Albumin Binding [1]: 99.3%

Compound: NS(=O)(=O)c1cc(C(=O)O)c(NCc2ccco2)cc1Cl [Furosemide]
- % Albumin Binding [1]: 98.8%

Compound: O=C1NC(=O)C(c2ccccc2)(c2ccccc2)N1 [Phenytoin]
- % Albumin Binding [1]: 89.0%

Compound: Clc1ccc(COC(Cn2ccnc2)c2ccc(Cl)cc2Cl)c(Cl)c1 (stereo not drawn) [Miconazole]
- % Albumin Binding [1]: 90.7–93.1* %

Compound: Cc1noc(NS(=O)(=O)c2ccc(N)cc2)c1C [Sulfisoxazole]
- % Albumin Binding [1]: 91.4%

Compound: 5′ TTAGGG 3′
- RATIO T/B [2, 5]: 1.35
- BOTTOM [2, 6]: 92.3 ± 6.4 cpm/μl
- TOP [2, 5]: 125 ± 6.4 cpm/μl
- RATIO T/B [2, 7]: 1.67
- BOTTOM [2, 8]: 126 ± 8.7 cpm/μl
- TOP [2, 7]: 210 ± 10.8 cpm/μl

Compound: 5′d(AACGTTGAGGGGCAT)-3′ [15 mer PS-ODN]
- binding to human serum albumin in solution (dissociation constant range) [3]: 3.7−4.8×10−5

Compound: CCC1(c2ccccc2)C(=O)NC(=O)NC1=O [PB, phenobarbital]
- sleep time [4]: about 11.4±4.5 minutes

Compound: 5′-TATGCTGTGCCGGGGTCTTCGGGC 3′ (antisense TATGCTGTGCCGGGGTCTTCGGGC; phosphorothioate backbone, 35S label, further chemistry not given here) [c-myb, uniformly 35S-labeled PS-ODN, 24-mer complementary to c-myb]
- RATIO T/B [2, 5]: 1.35
- BOTTOM [2, 6]: 77.3 ± 1.2 cpm/μl
- TOP [2, 5]: 94.1 ± 17.6 cpm/μl
- RATIO T/B [2, 7]: 2.16
- BOTTOM [2, 8]: 92.7 ± 15.7 cpm/μl
- TOP [2, 7]: 200.3 ± 37.4 cpm/μl

Compound: CCCC(CCC)C(=O)O [Valproic Acid]
- % Albumin Binding [1]: 93.0%

Compound: CO/N=C(\C(=O)N[C@@H]1C(=O)N2C(C(=O)O)=C(CSc3nc(=O)c(=O)[nH]n3C)CS[C@H]12)c1csc(N)n1 [Ceftriaxone]
- % Albumin Binding [1]: 90–95* %
